Results published in paper PMC9194863, “A novel small-molecule selective activator of homomeric GIRK4 channels” (The Journal of Biological Chemistry, 2022).
Positions count from the first letter of the chain named.

Key:
Test in all cases: two-electrode voltage clamp, Xenopus oocytes
Assay type in all cases: cell-based
GIRK2∗ (GIRK2:E152D) [1] = biological target: T1, GIRK2∗ (GIRK2:E152D) (Mus musculus, UniProt P48542, T80S/I82L/E152D); conditions: activator, high potassium ND96K
T1 construct: gene Kcnj6; GIRK2 E152D in pXOOM vector, homotetramer, expressed in Xenopus laevis oocytes
T1 sequence (P48542 1-425 T80S/I82L/E152D): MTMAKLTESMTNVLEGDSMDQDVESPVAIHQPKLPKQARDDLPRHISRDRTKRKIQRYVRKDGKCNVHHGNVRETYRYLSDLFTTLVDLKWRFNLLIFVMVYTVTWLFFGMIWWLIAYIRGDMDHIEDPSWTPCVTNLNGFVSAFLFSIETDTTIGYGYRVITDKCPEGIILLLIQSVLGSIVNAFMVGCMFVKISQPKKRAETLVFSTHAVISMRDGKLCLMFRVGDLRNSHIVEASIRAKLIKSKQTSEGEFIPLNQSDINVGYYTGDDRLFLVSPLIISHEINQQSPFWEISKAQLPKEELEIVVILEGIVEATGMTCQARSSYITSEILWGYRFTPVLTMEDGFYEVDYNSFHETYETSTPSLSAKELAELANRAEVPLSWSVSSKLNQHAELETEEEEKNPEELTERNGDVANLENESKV

[2] = biological target: T2, GIRK4 homomeric channel (GIRK4, G4) (Homo sapiens, UniProt P48544, S75A); conditions: activator, high potassium ND96K
T2 construct: gene KCNJ5; full-length GIRK4 in pGEMSH vector, homotetramer, expressed in Xenopus laevis oocytes
T2 sequence (P48544 1-419 S75A): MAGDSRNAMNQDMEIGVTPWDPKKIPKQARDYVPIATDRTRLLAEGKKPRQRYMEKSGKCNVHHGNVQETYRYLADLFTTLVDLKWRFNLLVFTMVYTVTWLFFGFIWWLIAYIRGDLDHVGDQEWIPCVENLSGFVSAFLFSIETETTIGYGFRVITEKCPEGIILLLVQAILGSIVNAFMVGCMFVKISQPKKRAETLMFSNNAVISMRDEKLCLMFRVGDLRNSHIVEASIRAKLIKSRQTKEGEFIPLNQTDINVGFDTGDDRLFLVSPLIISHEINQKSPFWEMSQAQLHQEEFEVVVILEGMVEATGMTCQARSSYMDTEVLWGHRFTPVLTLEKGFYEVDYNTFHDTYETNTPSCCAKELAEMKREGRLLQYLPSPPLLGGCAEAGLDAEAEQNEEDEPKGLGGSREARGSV

[3] = biological target: T3, GIRK4 homomeric channel (GIRK4, G4) (Homo sapiens, UniProt P48544, I177V); conditions: activator, high potassium ND96K
T3 construct: gene KCNJ5; full-length GIRK4 in pGEMSH vector, homotetramer, expressed in Xenopus laevis oocytes
T3 sequence (P48544 1-419 I177V): T2 sequence (P48544 1-419 S75A) with A75S, I177V

[4] = biological target: T4, GIRK4 homomeric channel (GIRK4, G4) (Homo sapiens, UniProt P48544, G247R); conditions: activator, high potassium ND96K
T4 construct: gene KCNJ5; full-length GIRK4 in pGEMSH vector, homotetramer, expressed in Xenopus laevis oocytes
T4 sequence (P48544 1-419 G247R): T2 sequence (P48544 1-419 S75A) with A75S, G247R

[5] = biological target: T5, GIRK4 homomeric channel (GIRK4, G4) (Homo sapiens, UniProt P48544, L90A); conditions: activator, high potassium ND96K
T5 construct: gene KCNJ5; full-length GIRK4 in pGEMSH vector, homotetramer, expressed in Xenopus laevis oocytes
T5 sequence (P48544 1-419 L90A): T2 sequence (P48544 1-419 S75A) with A75S, L90A

GIRK2∗ (GIRK2:E152D) [6] = biological target: T6, GIRK2∗ (GIRK2:E152D) (Mus musculus, UniProt P48542, I82L/E152D); conditions: activator, high potassium ND96K
T6 construct: gene Kcnj6; GIRK2 E152D in pXOOM vector, homotetramer, expressed in Xenopus laevis oocytes
T6 sequence (P48542 1-425 I82L/E152D): T1 sequence (P48542 1-425 T80S/I82L/E152D) with S80T

[7] = biological target: T7, GIRK4 homomeric channel (GIRK4, G4) (Homo sapiens, UniProt P48544, F181A); conditions: activator, high potassium ND96K
T7 construct: gene KCNJ5; full-length GIRK4 in pGEMSH vector, homotetramer, expressed in Xenopus laevis oocytes
T7 sequence (P48544 1-419 F181A): T2 sequence (P48544 1-419 S75A) with A75S, F181A

[8] = biological target: T8, GIRK4 homomeric channel (GIRK4, G4) (Homo sapiens, UniProt P48544, S75T); conditions: activator, high potassium ND96K
T8 construct: gene KCNJ5; full-length GIRK4 in pGEMSH vector, homotetramer, expressed in Xenopus laevis oocytes
T8 sequence (P48544 1-419 S75T): T2 sequence (P48544 1-419 S75A) with A75T

[9] = biological target: T9, GIRK4 homomeric channel (GIRK4, G4) (Homo sapiens, UniProt P48544)
T9 construct: gene KCNJ5; full-length GIRK4 in pGEMSH vector, homotetramer, expressed in Xenopus laevis oocytes
T9 sequence (P48544 1-419): T2 sequence (P48544 1-419 S75A) with A75S

[10] = biological target: T10, GIRK4 homomeric channel (GIRK4, G4) (Homo sapiens, UniProt P48544, L77I); conditions: activator, high potassium ND96K
T10 construct: gene KCNJ5; full-length GIRK4 in pGEMSH vector, homotetramer, expressed in Xenopus laevis oocytes
T10 sequence (P48544 1-419 L77I): T2 sequence (P48544 1-419 S75A) with A75S, L77I

COc1ccc(C(=O)CC2(O)C(=O)N(Cc3cccc4ccccc34)c3ccccc32)cc1OC (stereo not shown) [3hi2one-G4, 3-[2-(3,4-dimethoxyphenyl)-2-oxoethyl]-3-hydroxy-1-(1-naphthylmethyl)-1,3-dihydro-2H-indol-2-one]
current at 30 μM (GIRK2∗ (GIRK2:E152D) [1]): GIRK2∗:I82L and GIRK2∗:T80S/I82L but not GIRK2:T80S could be activated by 3hi2one-G4
I/Ibasal at 30 μM [2]: Mutation of residue S75 to Ala did not yield a significant change in the ability
I/Ibasal at 30 μM [3]: GIRK4:I177V, GIRK4:F181A, and GIRK4:I190A showed reduced 3hi2one-G4–induced currents
current at 30 μM [4]: GIRK4:G247R, which is functional, was robustly activated by 3hi2one-G4
I/Ibasal at 30 μM [5]: GIRK4:I177V, GIRK4:F181A, and GIRK4:I190A showed reduced 3hi2one-G4–induced currents
current at 30 μM (GIRK2∗ (GIRK2:E152D) [6]): GIRK2∗:I82L and GIRK2∗:T80S/I82L but not GIRK2:T80S could be activated by 3hi2one-G4
I/Ibasal at 30 μM [7]: GIRK4:I177V, GIRK4:F181A, and GIRK4:I190A showed reduced 3hi2one-G4–induced currents
I/Ibasal at 30 μM [8]: whereas a Thr mutation significantly but partially affected the compound’s effectiveness
EC50 [9]: 12.7 µM
I/Ibasal at 30 μM [10]: GIRK4:I177V, GIRK4:F181A, and GIRK4:I190A showed reduced 3hi2one-G4–induced currents
